Columns and labels:
[1] = tested on: mTORC2 signaling (Fox03a location); assay: Fox03a intracellular location by immunofluorescent staining in A549; assay type: cell-based, human; conditions: A549 cells, treated for 3 hours; FIG. 7c
From the text: mTORC2 activates SGK3, and SGK3 phosphorylates Fox03a, allowing Fox03a to remain in the cytoplasm. When mTORC2 is inhibited, Fox03a is dephosphorylated and translocated to the nucleus, and in the nucleus, it binds to FHRE located in a gene promoter to induce gene expression. Therefore, the change in the intracellular location of Fox03a and FHRE dependent gene expression become indicators for evaluating mTORC2 activity. In order to evaluate the effect of norathyriol on the mTORC2 activity, norathyriol was treated to A549, and then the change in the intracellular location of Fox03a was investigated by immunofluorescent staining.
Specifically, the A549 cells of 1×10^5 were seeded in a confocal dish coated with 35 mm collagen and cultured for 1 day. After treating norathyriol, the cells were fixed with 4% paraformaldehyde at 4° C. for 15 minutes. After treating PBS containing 0.5% Triton X-100 (PBS-T) at a room temperature for 5 minutes for permeabilization, PBS containing 5% normal goat serum and 1% gelatin was treated at a room temperature for 30 minutes for blocking. The Fox03a antibody diluted in 1% BSA was treated at a room temperature for 1 hour. After washing the culture dish with PBS-T, an FITC conjugated anti-rabbit secondary antibody diluted in 1% BSA was treated at a room temperature for 50 minutes. […]

Pten KO mice [2] = assay: Passive avoidance test in Pten KO mice; assay type: in vivo; conditions: FIG. 1b
Method: (§1) As Pten KO mice, Ptenf/f_cre/cre KO mice or Ptenf/f_cre/++ Het mice (KD) were obtained by mating Pten floxed/floxed mice and CAMKII-cre mice. DMSO or athyriol was intraperitoneally injected at 5 or 10 mg/kg for 2 weeks from the age of mice of 6 weeks, and a behavioral test was performed in 7 days after administration. Pten floxed/floxed mice were used as littermates of the same age as a normal control group.
A passive avoidance test was performed as described in Heo et al. (J. Ethnopharmacol. (2009) 122:20-27). After training the avoidance action by strong light three times a day, an electric foot shock (1 mA, 300 g test) was applied for 3 seconds in a dark room at the same time on the next day. After placing white mice in the same room in 24 hours after applying the shock, an avoidance response by light, that is, the time to move from a bright room to a dark room was measured, and it was dataficated for each group. Exactly after 24 hours of adaptation training, the mice were put back into the bright room and the latency time required to enter the dark room was measured for 720 seconds.

Pten KO mice [3] = assay: Y-type maze test in Pten KO mice; assay type: in vivo; conditions: 5 or 10 mg/kg intraperitoneally for 14 days, FIG. 1a
Method: as §1
A Y-maze was performed in a Y-shaped structure maze made of black acrylic material in which an angle of each arm was 120°, and a light and a cam were installed on the ceiling, and it was checked that white mice entered each arm while the surroundings were covered with a curtain. Through this, short-term memory was analyzed. In order to adapt mice to the environment, they were acclimated to the experimental space for 30 minutes. The mice were placed at one end of the maze and allowed to move freely for 12 minutes. Accuracy was measured by dividing time into 8 minutes, 10 minutes and 12 minutes. When the four paws of the mice entered the entrance, it was considered as completely entered. The percentage of accuracy was calculated as the number of times which a mouse entered each maze without repetition. The number of times entering each of three different arms was divided by the total number of times entering arms-2 and converted into a percentage for datafication. […]

Pten KO mice [4] = assay: Macrocephaly alleviation (brain weight) in Pten KO mice; assay type: in vivo; set-up: average brain weight: unit not given here; conditions: for average brain weight: FIG. 5
Method: as §1
When athyriol was administered into Pten KO mice, whether the weight of brain increased compared to a mouse without Pten knockout was reduced was confirmed. In other words, whether athyriol had efficacy of alleviating macrocephaly symptoms was confirmed through the following experiment.
Specifically, the body weight was measured after the aforementioned behavioral test of Experimental examples 1-2 to 1-6, and then animals were sacrificed. After removing the skull, the brain including forebrain, midbrain and hindbrain was extracted and the ratio of brain weight to body weight and the body weight were measured.

Pten KO mice [5] = assay: 3-chamber test in Pten KO mice; assay type: in vivo
Method: as §1
3-chamber test is a test to confirm sociability, social cognition, and social sexual preference, and it was tested by composing sessions 1 and 2. The experimental site was consisted of three chambers made of transparent acrylic walls with a small door and each chamber was length 50 cm×width 100 cm×height 50 cm. Through a cylindrical cage, the sense of smell and minimal contact of the test mice to the unfamiliar mouse were allowed. Prior to the test, the test mice were placed in an intermediate chamber and adapted for 5 minutes with both doors closed. The test was performed by dividing into sessions I and II. In the 3-chamber sociability measurement-1 session, an unfamiliar mouse met first was placed in a transparent box located at one end of the three rooms, and an empty transparent box of the same size was placed in the room located at the other side, and the target mouse was placed in the middle room, and then the time searching toward the counterpart within the social interaction zone was measured.
In the 3-chamber sociability measurement-2 session, an unfamiliar met first was placed in a transparent box located at one end of the three rooms, and the mouse met in the session 1 was placed in the same transparent box in the room located at the other side. […] Therefore, it could be confirmed that the sociability disorder occurring in the Pten KO mice was improved to the normal group level by athyriol administration.

SMILES | intracellular location of Fox03a [1] | memory ability in passive avoidance test (Pten KO mice [2]; 5 mg/kg) | memory ability in passive avoidance test, level relative to control group (Pten KO mice [2]; 10 mg/kg, % of the control group) [%] | short-term memory in Y-type maze test (Pten KO mice [3]) | brain weight corrected by body weight, increase compared to control group (Pten KO mice [4]; 5 mg/kg) | average brain weight (Pten KO mice [4]; 5 mg/kg for 14 days) | brain weight corrected by body weight, increase compared to control group (Pten KO mice [4]; 10 mg/kg) [times] | average brain weight (Pten KO mice [4]; 10 mg/kg for 14 days) | alleviation of macrocephaly symptoms (Pten KO mice [4]; 5 or 10 mg/kg for 14 days) [%] | increase of time of searching the unfamiliar mouse over normal control group, session 2 (Pten KO mice [5]; 10 mg/kg, session 2) [%] | time searching the unfamiliar mouse, session 1 (Pten KO mice [5]; 3-chamber sociability measurement-1 session, FIG. 4) | time of searching the unfamiliar mouse, session 2 (Pten KO mice [5]; 5 or 10 mg/kg, 3-chamber sociability measurement-2 session)
O=c1c2cc(O)c(O)cc2oc2cc(O)cc(O)c12 [norathyriol, 1,3,6,7-tetrahydroxy-9H-xanthen-9-one] | moved to the nucleus | – | – | – | – | – | – | – | – | – | – | –
COc1cc(O)c2c(=O)c3cc(O)c(O)cc3oc2c1 [athyriol, 1,6,7-Trihydroxy-3-methoxy-9H-xanthen-9-on] | – | rather more excellent than the control group | 89 | recovered almost to the level of the normal control group | about 1.3 times | 517 | ~1.26 | 515 | ≥ 68 | 14 | recovered to the normal control group level in a concentration-dependent manner | increased in a dose-dependent manner

Reference: patent US20240366555A1, “SELECTIVE MTORC2 INHIBITOR AND USES THEREOF” (ALIAD BIOPHARMA, priority 2021, published 2024)
